Measured values: PMC10794144, “A novel antibiotic class targeting the lipopolysaccharide transporter” (Nature, 2024)
Where two headings read alike, the source gives them in different places.

What was measured:
Cyclooxygenase 2 = target: T1, Cyclooxygenase 2 (Homo sapiens, UniProt P35354); assay: Off-target screening (CEREP); format: biochemical; settings: read-out: percent inhibition
T1 construct: purchased Eurofins CEREP SA
T1 sequence (P35354 18-604): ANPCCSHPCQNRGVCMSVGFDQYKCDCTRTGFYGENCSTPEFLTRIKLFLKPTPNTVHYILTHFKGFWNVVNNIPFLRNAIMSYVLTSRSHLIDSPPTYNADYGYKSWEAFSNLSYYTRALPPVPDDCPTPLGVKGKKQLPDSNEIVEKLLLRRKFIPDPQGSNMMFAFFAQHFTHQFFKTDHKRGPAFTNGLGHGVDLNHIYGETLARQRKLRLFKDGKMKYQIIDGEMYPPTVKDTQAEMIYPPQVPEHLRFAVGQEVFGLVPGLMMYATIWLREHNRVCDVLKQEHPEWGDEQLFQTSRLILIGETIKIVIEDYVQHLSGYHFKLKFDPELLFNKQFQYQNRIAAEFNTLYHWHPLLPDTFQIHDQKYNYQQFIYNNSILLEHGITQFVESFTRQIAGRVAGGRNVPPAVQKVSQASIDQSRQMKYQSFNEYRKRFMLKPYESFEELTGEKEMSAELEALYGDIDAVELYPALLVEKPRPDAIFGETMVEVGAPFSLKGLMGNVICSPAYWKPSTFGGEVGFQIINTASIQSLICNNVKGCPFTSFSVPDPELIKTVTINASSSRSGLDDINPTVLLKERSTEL
Protocol: (§1) Supplementary Table 1 │ Off-target activity screening f or MCP compou nds […]
(§2) The assays given in the table above were conducted at Eurofins CEREP S A (Celle-Lévescault, France) and were run as single point measurements in duplicates in the presence of 10 µ M of the test compound and reported as percent inhibition of the radioligand signal or control enzymatic activity. n.d., not

ZAP70 kinase = target: T2, ZAP70 kinase (Homo sapiens, UniProt P43403); assay: Off-target screening (CEREP); format: biochemical; settings: read-out: percent inhibition
T2 construct: purchased Eurofins CEREP SA
T2 sequence (P43403 1-619): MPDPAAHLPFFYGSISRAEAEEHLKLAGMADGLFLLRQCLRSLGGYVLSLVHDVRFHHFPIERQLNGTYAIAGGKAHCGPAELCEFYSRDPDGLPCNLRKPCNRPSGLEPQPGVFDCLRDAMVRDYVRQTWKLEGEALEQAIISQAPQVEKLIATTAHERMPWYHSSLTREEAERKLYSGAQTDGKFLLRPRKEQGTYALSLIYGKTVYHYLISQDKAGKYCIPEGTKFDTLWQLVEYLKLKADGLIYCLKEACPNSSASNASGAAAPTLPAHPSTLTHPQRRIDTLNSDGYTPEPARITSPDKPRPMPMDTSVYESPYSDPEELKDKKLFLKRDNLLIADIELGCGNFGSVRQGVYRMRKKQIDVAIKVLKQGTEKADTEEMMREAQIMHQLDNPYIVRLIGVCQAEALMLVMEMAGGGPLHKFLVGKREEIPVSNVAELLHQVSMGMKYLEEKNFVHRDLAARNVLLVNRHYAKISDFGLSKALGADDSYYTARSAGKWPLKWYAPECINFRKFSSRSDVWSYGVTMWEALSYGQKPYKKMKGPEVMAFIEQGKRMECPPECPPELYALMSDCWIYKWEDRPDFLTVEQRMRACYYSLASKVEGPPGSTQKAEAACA
Protocol: as §1, §2

GSK-3A = target: T3, GSK-3A (Homo sapiens, UniProt P49840); assay: Off-target screening (CEREP); format: biochemical; settings: read-out: percent inhibition
T3 construct: purchased Eurofins CEREP SA
Protocol: as §1, §2

Monoamine oxidase-A = target: T4, Monoamine oxidase-A (Homo sapiens, UniProt P21397); assay: Off-target screening (CEREP); format: biochemical; settings: read-out: percent inhibition
T4 construct: purchased Eurofins CEREP SA
T4 sequence (P21397 1-527): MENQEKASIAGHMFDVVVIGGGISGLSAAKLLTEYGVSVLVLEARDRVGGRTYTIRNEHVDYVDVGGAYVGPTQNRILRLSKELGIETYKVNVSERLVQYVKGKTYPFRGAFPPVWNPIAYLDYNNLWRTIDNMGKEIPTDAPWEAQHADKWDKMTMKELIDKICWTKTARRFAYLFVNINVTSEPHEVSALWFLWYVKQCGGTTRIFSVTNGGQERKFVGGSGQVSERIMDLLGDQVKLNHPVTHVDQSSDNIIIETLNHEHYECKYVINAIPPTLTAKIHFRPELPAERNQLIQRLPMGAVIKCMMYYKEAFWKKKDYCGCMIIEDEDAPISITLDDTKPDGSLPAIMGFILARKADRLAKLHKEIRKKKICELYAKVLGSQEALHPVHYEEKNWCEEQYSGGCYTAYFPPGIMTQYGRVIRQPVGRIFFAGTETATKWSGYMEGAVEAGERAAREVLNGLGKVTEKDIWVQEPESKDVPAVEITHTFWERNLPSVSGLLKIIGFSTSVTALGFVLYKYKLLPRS
Protocol: as §1, §2

Matrix metalloprotease-9 = target: T5, Matrix metalloprotease-9 (Homo sapiens, UniProt P14780); assay: Off-target screening (CEREP); format: biochemical; settings: read-out: percent inhibition
T5 construct: purchased Eurofins CEREP SA
Protocol: as §1, §2

Phosphodiesterase 3B = target: T6, Phosphodiesterase 3B (Homo sapiens, UniProt Q13370); assay: Off-target screening (CEREP); format: biochemical; settings: read-out: percent inhibition
T6 construct: purchased Eurofins CEREP SA
Protocol: as §1, §2

Acetylcholinesterase = target: T7, Acetylcholinesterase (Homo sapiens, UniProt P22303); assay: Off-target screening (CEREP); format: biochemical; settings: read-out: percent inhibition
T7 construct: purchased Eurofins CEREP SA
Protocol: as §1, §2

Xanthine oxidase = target: T8, Xanthine oxidase (Bos taurus, UniProt P80457); assay: Off-target screening (CEREP); format: biochemical, bovine; settings: read-out: percent inhibition
T8 construct: purchased Eurofins CEREP SA
Protocol: as §1, §2

Phosphodiesterase 4D2 = target: T9, Phosphodiesterase 4D2 (Homo sapiens, UniProt Q08499); assay: Off-target screening (CEREP); format: biochemical; settings: read-out: percent inhibition
T9 construct: purchased Eurofins CEREP SA
Protocol: as §1, §2

HIV-1 protease = assay: Off-target screening (CEREP); format: biochemical; settings: 10 µM, duplicates
Protocol: as §1, §2

A. baumannii = assay: Immunocompetent mouse septicaemia infection model; format: in vivo
Protocol: Septicaemia was induced in CD-1 immunocompetent male mice by an intraperitoneal inoculation of a bacterial suspension of the tested A. baumannii isolate at a challenge of approximately 1–2 log[CFU] above the determined median lethal dose (resulting in 10^5 to 10^7 CFU per mouse). […] Mouse survival was followed over 6–7 days. GraphPad Prism 8 was used for graphical presentation of the data. Septicaemia studies with mutant derivative isolates obtained in resistance studies were performed as described above, using a bacterial challenge as determined for the parental isolate.

[1] = system: Nicotinic receptor, neuronal; assay: Off-target screening (CEREP); format: binding, human; settings: 10 µM, duplicates
Protocol: as §1, §2

[2] = system: Nicotinic receptor, muscle; assay: Off-target screening (CEREP); format: binding, human; settings: 10 µM, duplicates
Protocol: as §1, §2

hERG = hERG (Homo sapiens, UniProt Q12809); assay: hERG
[3] = murine septicaemia, MDR A. baumannii APV00535 (ACC00535), MCP 0.1 mg/kg, mark per mouse (10 mice), study VDD3948

T3 sequence (P49840 whole entry): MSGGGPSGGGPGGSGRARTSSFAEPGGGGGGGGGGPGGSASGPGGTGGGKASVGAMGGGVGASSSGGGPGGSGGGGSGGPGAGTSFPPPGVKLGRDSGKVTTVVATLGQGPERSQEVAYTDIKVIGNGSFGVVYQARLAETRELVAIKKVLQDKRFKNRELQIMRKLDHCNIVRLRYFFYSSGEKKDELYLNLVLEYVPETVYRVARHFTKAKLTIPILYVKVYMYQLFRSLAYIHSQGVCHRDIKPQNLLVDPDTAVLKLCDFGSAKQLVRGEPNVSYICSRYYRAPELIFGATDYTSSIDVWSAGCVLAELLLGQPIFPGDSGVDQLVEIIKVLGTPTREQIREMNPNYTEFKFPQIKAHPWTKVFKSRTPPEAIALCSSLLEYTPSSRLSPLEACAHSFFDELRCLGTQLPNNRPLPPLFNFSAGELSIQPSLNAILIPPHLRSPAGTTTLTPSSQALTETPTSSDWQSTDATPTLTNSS
T7 sequence (P22303 32-614): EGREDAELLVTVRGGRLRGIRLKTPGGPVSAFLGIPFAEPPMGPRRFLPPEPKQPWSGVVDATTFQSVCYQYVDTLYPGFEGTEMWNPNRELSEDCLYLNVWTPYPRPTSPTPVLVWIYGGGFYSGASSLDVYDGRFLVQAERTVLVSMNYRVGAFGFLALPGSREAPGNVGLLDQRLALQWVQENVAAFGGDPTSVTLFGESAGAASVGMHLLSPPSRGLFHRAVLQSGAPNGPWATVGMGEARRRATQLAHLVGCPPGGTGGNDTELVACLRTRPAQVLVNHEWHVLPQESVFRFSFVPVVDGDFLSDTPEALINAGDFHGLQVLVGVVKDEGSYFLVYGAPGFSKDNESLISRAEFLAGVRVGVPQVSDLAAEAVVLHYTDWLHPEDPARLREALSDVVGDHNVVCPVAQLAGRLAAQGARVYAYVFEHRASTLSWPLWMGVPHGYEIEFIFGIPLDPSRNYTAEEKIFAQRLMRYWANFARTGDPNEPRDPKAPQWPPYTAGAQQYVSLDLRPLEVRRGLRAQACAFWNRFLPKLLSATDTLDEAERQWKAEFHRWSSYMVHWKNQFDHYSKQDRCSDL
T6 sequence (Q13370 whole entry): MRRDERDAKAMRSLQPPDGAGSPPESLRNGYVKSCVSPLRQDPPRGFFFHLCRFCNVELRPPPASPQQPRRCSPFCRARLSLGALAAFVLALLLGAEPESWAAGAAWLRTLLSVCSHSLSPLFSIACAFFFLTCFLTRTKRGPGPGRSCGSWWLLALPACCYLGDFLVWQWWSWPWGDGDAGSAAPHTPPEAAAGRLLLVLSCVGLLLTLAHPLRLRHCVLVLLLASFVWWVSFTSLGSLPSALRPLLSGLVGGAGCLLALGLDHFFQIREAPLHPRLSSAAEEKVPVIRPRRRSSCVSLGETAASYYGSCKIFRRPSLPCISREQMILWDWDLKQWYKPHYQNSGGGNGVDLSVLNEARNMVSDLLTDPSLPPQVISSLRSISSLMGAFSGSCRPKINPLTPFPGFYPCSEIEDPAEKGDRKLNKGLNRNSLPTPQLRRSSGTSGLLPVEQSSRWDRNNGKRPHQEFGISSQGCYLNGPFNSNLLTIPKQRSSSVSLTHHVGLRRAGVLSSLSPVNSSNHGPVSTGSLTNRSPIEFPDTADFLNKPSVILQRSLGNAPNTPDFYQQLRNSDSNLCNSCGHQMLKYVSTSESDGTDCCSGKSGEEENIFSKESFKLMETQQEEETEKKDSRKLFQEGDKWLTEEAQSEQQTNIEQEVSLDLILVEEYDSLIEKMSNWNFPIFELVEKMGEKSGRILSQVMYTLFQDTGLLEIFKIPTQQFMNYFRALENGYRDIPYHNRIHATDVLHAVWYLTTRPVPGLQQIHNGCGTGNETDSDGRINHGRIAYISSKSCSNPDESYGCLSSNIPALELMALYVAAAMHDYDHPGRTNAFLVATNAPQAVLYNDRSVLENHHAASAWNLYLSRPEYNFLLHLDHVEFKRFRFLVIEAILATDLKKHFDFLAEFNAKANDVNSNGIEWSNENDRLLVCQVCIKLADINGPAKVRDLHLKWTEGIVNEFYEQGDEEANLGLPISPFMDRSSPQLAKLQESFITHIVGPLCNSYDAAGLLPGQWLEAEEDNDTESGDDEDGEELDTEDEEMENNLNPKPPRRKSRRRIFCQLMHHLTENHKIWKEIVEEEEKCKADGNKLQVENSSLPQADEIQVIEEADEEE
hERG, sequence (Q12809 whole entry): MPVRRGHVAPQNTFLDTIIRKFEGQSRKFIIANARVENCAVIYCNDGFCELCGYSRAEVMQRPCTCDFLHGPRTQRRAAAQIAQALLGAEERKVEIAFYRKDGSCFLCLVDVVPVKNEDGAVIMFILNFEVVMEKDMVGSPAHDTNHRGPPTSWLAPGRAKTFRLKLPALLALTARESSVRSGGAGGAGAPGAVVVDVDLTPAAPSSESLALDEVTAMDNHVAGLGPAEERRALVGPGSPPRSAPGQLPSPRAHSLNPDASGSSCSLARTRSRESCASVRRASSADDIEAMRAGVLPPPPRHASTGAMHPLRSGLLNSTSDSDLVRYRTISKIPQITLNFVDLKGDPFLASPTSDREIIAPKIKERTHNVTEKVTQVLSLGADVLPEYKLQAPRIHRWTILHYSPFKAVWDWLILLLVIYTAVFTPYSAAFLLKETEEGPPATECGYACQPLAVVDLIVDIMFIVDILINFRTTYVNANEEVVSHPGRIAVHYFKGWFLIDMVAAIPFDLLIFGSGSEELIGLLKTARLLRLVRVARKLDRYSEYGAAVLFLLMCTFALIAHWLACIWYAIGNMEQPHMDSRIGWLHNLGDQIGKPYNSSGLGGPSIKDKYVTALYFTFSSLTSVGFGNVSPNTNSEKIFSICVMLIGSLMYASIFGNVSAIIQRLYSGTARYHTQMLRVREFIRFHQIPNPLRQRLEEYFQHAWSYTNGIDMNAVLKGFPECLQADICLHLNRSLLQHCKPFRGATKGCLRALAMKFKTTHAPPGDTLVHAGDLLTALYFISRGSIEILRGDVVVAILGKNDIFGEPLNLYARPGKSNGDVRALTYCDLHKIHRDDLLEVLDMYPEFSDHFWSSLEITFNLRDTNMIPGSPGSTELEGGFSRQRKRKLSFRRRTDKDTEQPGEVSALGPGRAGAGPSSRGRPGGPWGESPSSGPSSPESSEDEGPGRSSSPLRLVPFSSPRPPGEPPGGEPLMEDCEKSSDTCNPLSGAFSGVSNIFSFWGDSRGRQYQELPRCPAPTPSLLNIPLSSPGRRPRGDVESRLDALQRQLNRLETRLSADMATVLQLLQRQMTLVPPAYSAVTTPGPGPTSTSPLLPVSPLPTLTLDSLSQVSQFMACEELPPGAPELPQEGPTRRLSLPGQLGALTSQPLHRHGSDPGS
T5 sequence (P14780 94-707): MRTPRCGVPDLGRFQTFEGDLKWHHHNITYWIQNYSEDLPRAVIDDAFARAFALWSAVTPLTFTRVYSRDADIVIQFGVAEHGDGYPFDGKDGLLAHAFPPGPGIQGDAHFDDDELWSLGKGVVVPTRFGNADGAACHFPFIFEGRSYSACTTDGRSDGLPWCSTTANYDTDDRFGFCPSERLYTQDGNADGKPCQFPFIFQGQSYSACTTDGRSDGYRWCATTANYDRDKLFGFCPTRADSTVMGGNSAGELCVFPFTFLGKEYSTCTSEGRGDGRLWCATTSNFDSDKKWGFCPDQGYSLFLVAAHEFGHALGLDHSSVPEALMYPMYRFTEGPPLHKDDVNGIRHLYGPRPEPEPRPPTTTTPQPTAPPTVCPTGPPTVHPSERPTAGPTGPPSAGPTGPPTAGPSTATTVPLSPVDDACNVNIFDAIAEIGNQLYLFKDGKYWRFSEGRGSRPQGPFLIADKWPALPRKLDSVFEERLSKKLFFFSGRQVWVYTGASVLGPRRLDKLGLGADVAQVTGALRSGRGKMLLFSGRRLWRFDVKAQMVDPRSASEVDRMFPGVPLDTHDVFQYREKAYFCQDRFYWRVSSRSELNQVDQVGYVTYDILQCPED
T9 sequence (Q08499 303-809 limits assumed): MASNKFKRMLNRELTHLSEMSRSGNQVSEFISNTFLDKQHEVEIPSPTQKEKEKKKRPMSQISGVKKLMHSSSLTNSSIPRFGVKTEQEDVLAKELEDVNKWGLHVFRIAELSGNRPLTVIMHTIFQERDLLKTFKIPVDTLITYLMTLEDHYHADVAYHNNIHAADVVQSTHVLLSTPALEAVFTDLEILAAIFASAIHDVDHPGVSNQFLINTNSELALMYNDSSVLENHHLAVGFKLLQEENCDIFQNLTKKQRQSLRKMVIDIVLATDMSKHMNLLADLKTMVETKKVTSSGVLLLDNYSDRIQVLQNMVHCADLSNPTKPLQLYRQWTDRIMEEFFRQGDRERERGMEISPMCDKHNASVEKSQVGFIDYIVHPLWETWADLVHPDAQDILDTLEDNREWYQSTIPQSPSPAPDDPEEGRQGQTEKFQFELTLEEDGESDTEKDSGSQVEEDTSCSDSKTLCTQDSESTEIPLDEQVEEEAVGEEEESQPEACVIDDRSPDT

`CN1C(=O)[C@H](CCCN)NC(=O)[C@H](CCCN)NCc2ccccc2Sc2ccccc2CNC(=O)[C@@H]1Cc1c[nH]c2ccccc12` [RO7036668] showed an inhibition at 10 µM (Cyclooxygenase 2; 10 µM, duplicates) of 4%, an inhibition at 10 µM (ZAP70 kinase; 10 µM, duplicates) of 2% and an inhibition at 10 µM (GSK-3A; 10 µM, duplicates) of -12%. For the same compound, the inhibition at 10 µM (Monoamine oxidase-A; 10 µM, duplicates) was -2%, the inhibition at 10 µM (Matrix metalloprotease-9; 10 µM, duplicates) was 6% and the inhibition at 10 µM (Phosphodiesterase 3B; 10 µM, duplicates) was 17%. The inhibition at 10 µM (Acetylcholinesterase; 10 µM, duplicates) was 9% and the inhibition at 10 µM (Xanthine oxidase; 10 µM, duplicates) was -16%.
Work on `CN1C(=O)[C@H](CCCCN)NC(=O)[C@H](CCCN)NCc2cccnc2Sc2c(Cl)ccc(Cl)c2CNC(=O)[C@@H]1Cc1c[nH]c2ccccc12` [RO7075573] yielded an inhibition at 10 µM (Phosphodiesterase 4D2) of 0%, an inhibition at 10 µM (Cyclooxygenase 2) of -46% and an inhibition at 10 µM (ZAP70 kinase) of -47%. The inhibition at 10 µM (GSK-3A) was -1%, the inhibition at 10 µM (Monoamine oxidase-A) was 3% and the inhibition at 10 µM (Matrix metalloprotease-9) was -31%. For the same compound, the inhibition at 10 µM (Phosphodiesterase 3B) was -3%, the percent inhibition (HIV-1 protease) was -4% and the inhibition at 10 µM (Acetylcholinesterase) was 4%. For the same compound, the inhibition at 10 µM (Xanthine oxidase) was 6%, the “Protection in lethal sepsis model” value (A. baumannii; ACC00535, immunocompetent mice, s.c. doses between 0.1 and 0.3 mg per kg at 1 h and 5 h) was “complete protection” and the “Survivors, 2016-02-03” value (A. baumannii; murine septicaemia, MDR A. baumannii APV00535 (ACC00535), MCP 0.01 mg/kg, mark per mouse (10 mice), study VDD3948) was 1. For the same compound, the “Survivors, 2016-02-03” value (A. baumannii; murine septicaemia, MDR A. baumannii APV00535 (ACC00535), MCP 0.03 mg/kg, mark per mouse (10 mice), study VDD3948) was 1, the “Survivors, 2016-02-03” value (A. baumannii; [3]) was 1 and the “Survivors, 2016-02-04” value (A. baumannii; [3]) was 1. It also gave a percent inhibition [1] of -7%, a percent inhibition [2] of 5% and an IC50 (hERG) of over 10 µM. The “hERG IC20” value (hERG) was 4 µM.
